Measurements reported in US11021481B2, “Substituted isoindolin-1-ones and 2,3-dihydro-1h-pyrrolo[3,4-c]pyridin-1-ones as HPK1 antagonists” (Nimbus Saturn, Inc., priority 2019, dated 2021).

Each compound was assayed against HPK1 (Homo sapiens (Human), UniProt Q92918) (assay: HPK1 biochemical enzyme assay (microfluidic mobility shift assay)). Conditions: 1.5 nM HPK1, ATP 1 mM final, 30 min preincubation, 60 min at RT, Caliper EZ Reader; read-out: HPK1 1000UMATP caliper IC50.
Outline: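 Mobility shift readout of HPK1 activity after a 60 min RT reaction with 1 mM ATP, 1 μM substrate and 5 mM MgCl2. Enzyme/substrate mix was first exposed to compounds for 30 min, using ten-point curves topping at 3 μM final.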

HPK1, sequence (Q92918 whole entry): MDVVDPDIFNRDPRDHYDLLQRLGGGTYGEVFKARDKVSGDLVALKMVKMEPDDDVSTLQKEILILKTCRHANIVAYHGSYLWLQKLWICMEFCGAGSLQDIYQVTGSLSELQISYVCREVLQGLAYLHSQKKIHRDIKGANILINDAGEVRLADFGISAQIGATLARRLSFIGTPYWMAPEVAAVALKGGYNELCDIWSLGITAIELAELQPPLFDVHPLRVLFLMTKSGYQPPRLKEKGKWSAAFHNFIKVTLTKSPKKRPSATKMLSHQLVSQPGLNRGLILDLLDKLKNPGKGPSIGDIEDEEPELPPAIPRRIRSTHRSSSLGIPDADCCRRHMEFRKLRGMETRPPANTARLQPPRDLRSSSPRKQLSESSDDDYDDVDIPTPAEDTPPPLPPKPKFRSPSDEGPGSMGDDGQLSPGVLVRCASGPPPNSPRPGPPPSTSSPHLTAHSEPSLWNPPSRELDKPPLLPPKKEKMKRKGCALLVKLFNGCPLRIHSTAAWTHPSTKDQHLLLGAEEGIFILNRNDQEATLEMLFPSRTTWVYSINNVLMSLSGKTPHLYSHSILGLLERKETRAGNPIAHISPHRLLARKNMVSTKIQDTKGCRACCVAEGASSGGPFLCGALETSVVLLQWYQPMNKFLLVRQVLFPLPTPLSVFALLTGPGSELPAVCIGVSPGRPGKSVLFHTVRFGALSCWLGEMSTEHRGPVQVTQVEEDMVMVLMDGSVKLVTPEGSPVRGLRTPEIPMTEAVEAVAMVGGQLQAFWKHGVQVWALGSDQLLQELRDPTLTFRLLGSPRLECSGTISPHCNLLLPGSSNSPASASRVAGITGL

| Structure (SMILES) | IC50 [nM] |
| --- | --- |
| Cc1nc2ccccn2c1-c1ncc(Nc2ccc(N3CCC(O)CC3)cn2)c2c1CNC2=O [I-248, 7-[[5-(4-hydroxy-1-piperidyl)-2-pyridyl]-amino]-4-(2-methylimidazo [1,2-a]pyridin-3-yl)-2,3-dihydropyrrolo [3,4-c]pyridin-1-one] | > 1000 |
| CN(C)CCOc1ccn2c(-c3ccc(Nc4ccc(N5CCC(F)C(O)C5)cn4)c4c3CNC4=O)cnc2c1 (stereo not drawn) [I-249] | 100 to 1000 |
| CN1CCN(c2ccc(Nc3cnc(-c4c[nH]c5cc(O)ccc45)c4c3C(=O)NC4)nc2)CC1 [I-250] | 100 to 1000 |
| CN1CCN(c2ccc(Nc3cnc(-c4cccc5[nH]ccc45)c4c3C(=O)NC4)nc2)CC1 [I-252, 4-(1H-indol-4-yl)-7-((5-(4-methylpiperazin-1-yl)pyridin-2-yl)amino)-2,3-dihydro-1H-pyrrolo[3,4-c]pyridin-1-one] | 100 to 1000 |
| CN1CCN(c2ccc(Nc3cnc(-c4c[nH]c5nc(C(F)(F)F)ccc45)c4c3C(=O)NC4)nc2)CC1 [I-253, 7-((5-(4-methylpiperazin-1-yl)pyridin-2-yl)amino]-4-(6-(trifluorometh-yl)-1H-pyrrolo[2,3-b]pyridin-3-yl)-2,3-dihydro-1H-pyrrolo[3,4-c]pyridin-1-one] | > 1000 |
| CN1CCN(c2ccc(Nc3cnc(-c4cnn5c4CCC5)c4c3C(=O)NC4)nc2)CC1 [I-254, 4-(5,6-dihydro-4H-pyrrolo[1,2-b]pyrazol-3-yl)-7-((5-(4-methylpiperazin-1-yl)pyridin-2-yl)amino)-2,3-dihydro-1H-pyrrolo[3,4-c]pyridin-1-one] | 100 to 1000 |
| CN1CCN(c2ccc(Nc3ccc(-c4ccnc5c4ccn5Cc4ccccc4)c4c3C(=O)NC4)nc2)CC1 [I-257, 4-(1-benzyl-1H-pyrrolo[2,3-b]pyridin-4-yl)-7-((5-(4-methylpiperazin-1-yl)pyridin-2-yl)amino)isoin-dolin-1-one] | 100 to 1000 |
| CN1CCN(c2ccc(Nc3cnc(-c4c[nH]c5cc(OCc6ccccc6)ccc45)c4c3C(=O)NC4)nc2)CC1 [I-260, 4-(6-(benzyloxy)-1H-indol-3-yl)-7-((5-(4-methylpiperazin-1-yl)pyridin-2-yl)amino)-2.3-dihydro-1H-pyrrolo[3,4-c]pyridin-1-one] | > 1000 |
| Cn1ccc2c(-c3ncc(Nc4ccc(N5CC6CCC(C5)N6)cn4)c4c3CNC4=O)ccnc21 [I-262, 7-((5-(3,8-diazabicyclo [3.2.1]octan-3-yl)pyridin-2-yl)amino)-4-(1-methyl-1H-pyrrolo[2,3-b]pyridin-4-yl)-2,3-dihydro-1H-pyrrolo[3,4-c]pyridin-1-Fone] | < 100 |
| COc1cc(N2CCC(O)CC2)cnc1Nc1ccc(-c2ccnc3c2ccn3C)c2c1C(=O)NC2 [I-267, 7-((5-(4-hydroxy-piperidin-1-yl)-3-methoxypyridin-2-yl)amino)-4-(1-methyl-1H-pyrrolo[2,3-b]pyridin-4-yl)isoindolin-1-one] | > 1000 |
| CN1CCN(c2ccc(Nc3cnc(-c4cnc5n4CCC5)c4c3C(=O)NC4)nc2)CC1 [I-268, 4-(6,7-dihydro-5H-pyrrolo[1,2-a]imidazol-3-yl)-7-((5-(4-methylpiperazin-1-yl)pyridin-2-yl)amino)-2.3-dihydro-1H-pyrrolo[3,4-c]pyridin-1-one] | 100 to 1000 |
| CN1CCN(c2ccc(Nc3ccc(-c4ccnc5ocnc45)c4c3C(=O)NC4)nc2)CC1 [I-270, 7-((5-(4-methylpiperazin-1-yl)pyridin-2-yl)amino)-4-(oxazolo[5,4-b]pyridin-7-yl)isoindolin-1-one] | 100 to 1000 |
| Cn1ccc2c(-c3ccc(Nc4ccc(C5(C)CCNCC5)cn4)c4c3CNC4=O)ccnc21 [I-272, 4-(1-methyl-1H-pyrrolo[2,3-b]pyridin-4-yl)-7-((5-(4-methylpiperidin-4-yl)pyridin-2-yl)amino)isoin-dolin-1-one] | < 100 |
| Cn1ccc2c(-c3ccc(Nc4ccc(N5CCNCC5)cn4)c4c3C(C)(C)NC4=O)ccnc21 [I-273, 3,3-dimethyl-4-(1-methyl-1H-pyrrolo[2,3-b]pyridin-4-yl)-7-((5-(piperazin-1-yl)pyridin-2-yl)amino)isoindolin-1-one] | > 1000 |
| CN1CCC(O)(c2ccc(Nc3ccc(-c4ccnc5c4ccn5C)c4c3C(=O)NC4)nc2)CC1 [I-274, 7-((5-(4-hydroxy-1-methylpiperidin-4-yl)pyridin-2-yl)amino)-4-(1-methyl-1H-pyrrolo[2,3-b]pyridin-4-yl)isoindolin-1-one] | < 100 |
| CN1CCC(C)(c2ccc(Nc3ccc(-c4ccnc5c4ccn5C)c4c3C(=O)NC4)nc2)CC1 [I-275, 7-((5-(1,4-dimethyl-piperidin-4-yl)pyridin-2-yl)amino)-4-(1-methyl-1H-pyrrolo[2,3-b]pyridin-4-yl)isoindolin-1-one] | < 100 |
| Cn1ccc2c(-c3ccc(Nc4ccc(N5CC[C@@H](O)C5)cn4)c4c3CNC4=O)ccnc21 [I-278, (R)-7-((5-(3-hydroxy-pyrrolidin-1-yl)pyridin-2-yl)amino)-4-(1-methyl-1H-pyrrolo[2,3-b]pyridin-4-yl)isoindolin-1-one] | < 100 |
| Cn1ccc2c(-c3ncc(Nc4ccc(N5CCC(O)CC5)cn4)c4c3CNC4=O)cccc21 [I-279, 7-((5-(4-hydroxypi-peridin-1-yl)pyridin-2-yl)amino)-4-(1-methyl-1H-indol-4-yl)-2.3-dihydro-1H-pyrrolo[3,4-c]pyridin-1-one] | < 100 |

Next, values leading:

| IC50 [nM] | Structure (SMILES) |
| --- | --- |
| < 100 | COc1c(F)ccn2c(-c3ccc(Nc4ccc(N5CCC(O)CC5)cn4)c4c3CNC4=O)cnc12 [I-242, 4-(7-fluoro-8-methoxy-imidazo[1,2-a]pyridin-3-yl)-7-[[5-(4-hydroxy-1-piperidyl)-2-pyridyl]amino] isoindolin-1-one] |
| < 100 | CC(C)(O)[C@H]1CCCN(c2ccc(Nc3cnc(-c4cnc5c(F)cccn45)c4c3C(=O)NC4)nc2)C1 [I-243, 4-(8-fluoroimidazo [1,2-a]pyridin-3-yl)-7-[[5-[(3S)-3-(1-hydroxy-1-methyl-ethyl)-1-piperidyl]-2-pyridyl]-amino]-2,3-dihydropyrrolo [3,4-c]pyridin-1-one] |
| < 100 | CNC1(C)CCN(c2ccc(Nc3cnc(-c4ccnc5c4ccn5C)c4c3C(=O)NC4)nc2)CC1 [I-244, 7-[[5-[4-methyl-4-(methylamino)-1-piperidyl]-2-pyridyl]-amino]-4-(1-methylpyrrolo [2,3-b]pyridin-4-yl)-2,3-dihydropyrrolo [3,4-c]pyridin-1-one] |
| < 100 | CN[C@H]1CCN(c2cccc(Nc3cnc(-c4ccnc5c4ccn5C)c4c3C(=O)NC4)n2)C1 [I-245, 7-[[6-[(3S)-3-(methylamino)pyrrolidin-1-yl]-2-pyridyl]amino]-4-(1-methylpyrrolo [2,3-b]pyridin-4-yl)-2,3-dihydropyrrolo [3,4-c]pyridin-1-one] |
| < 100 | CN(C)CCN(C)c1cccc(Nc2cnc(-c3ccnc4c3ccn4C)c3c2C(=O)NC3)n1 [I-246, 7-[[6-[2-(dimethylami-no)ethyl-methyl-amino]-2-pyridyl]-amino]-4-(1-methylpyrrolo [2,3-b]pyridin-4-yl)-2,3-dihydropyrrolo [3,4-c]pyridin-1-one] |
| < 100 | CN1CCN(c2cccc(Nc3ccc(-c4ccnc5c4ccn5C)c4c3C(=O)NC4)n2)CC1 [I-247, 7-[[6-(4-methylpiperazin-1-yl)-2-pyridyl]amino]-4-(1-methylpyrrolo [2,3-b]pyridin-4-yl)isoindolin-1-one] |
| < 100 | CN1CCN(c2ccc(Nc3cnc(-c4cccc5c4ccn5C)c4c3C(=O)NC4)nc2)CC1 [I-251, 4-(1-methyl-1H-indol-4-yl)-7-((5-(4-methylpiperazin-1-yl)pyridin-2-yl)amino)-2,3-dihydro-1H-pyrrolo[3,4-c]pyridin-1-one] |
| < 100 | CN1CCN(c2ccc(Nc3cnc(-c4cnn5c4CCCC5)c4c3C(=O)NC4)nc2)CC1 [I-255, 7-((5-(4-methylpiperazin-1-yl)pyridin-2-yl)amino)-4-(4,5,6,7-tetrahydropyra-zolo[1,5-a]pyridin-3-yl)-2,3-dihydro-1H-pyrrolo[3,4-c]pyridin-1-one] |
| < 100 | CN1CCN(c2ccc(Nc3ccc(-c4ccn5ncccc45)c4c3C(=O)NC4)nc2)CC1 [I-256, 7-((5-(4-methylpiperazin-1-yl)pyridin-2-yl)amino)-4-(pyrrolo[1,2-b]pyridazin-5-yl)isoindolin-1-one] |
| < 100 | Cn1ccc2c(-c3ncc(Nc4ccc(N5CCNCC5)cn4)c4c3CNC4=O)ccnc21 [I-258, 4-(1-methyl-1H-pyrrolo[2,3-b]pyridin-4-yl)-7-((5-(piperazin-1-yl)pyridin-2-yl)amino)-2,3-dihydro-1H-pyrrolo[3,4-c]pyridin-1-one] |
| < 100 | C[C@@H]1COc2c(-c3ccc(Nc4ccc(N5CCN(C)CC5)cn4)c4c3CNC4=O)cnn2C1 [I-261, (S)-4-(6-methyl-6,7-dihydro-5H-pyrazolo[5,1-b][l,3]oxazin-3-yl)-7-((5-(4-methylpiperazin-1-yl)pyridin-2-yl)amino)isoin-dolin-1-one] |
| < 100 | C[C@H]1CCn2ncc(-c3ccc(Nc4ccc(N5CCN(C)CC5)cn4)c4c3CNC4=O)c2C1 [I-264, (S)-4-(5-methyl-4,5,6,7-tetrahydropyra-zolo[1,5-a]pyridin-3-yl)-7-((5-(4-methylpiperazin-1-yl)pyridin-2-yl)amino)isoin-dolin-1-one] |
| < 100 | CN1CCN(c2ccc(Nc3ccc(-c4ccnc5c4ccn5C4CC4)c4c3C(=O)NC4)nc2)CC1 [I-265, 4-(1-cyclopropyl-1H-pyrrolo[2,3-b]pyridin-4-yl)-7-((5-(4-methylpiperazin-1-yl)pyridin-2-yl)amino)isoin-dolin-1-one] |
| < 100 | CN1CCN(c2ccc(Nc3ccc(-c4ccnc5c4ccn5CC(N)=O)c4c3C(=O)NC4)nc2)CC1 [I-269, 2-(4-(7-((5-(4-methylpiperazin-1-yl)pyridin-2-yl)amino)-1-oxoisoindolin-4-yl)-lH-pyrrolo[2.3-b]pyridin-1-yl)acctamide] |
| < 100 | CN1CCC(c2ccc(Nc3ccc(-c4ccnc5c4ccn5C)c4c3C(=O)NC4)nc2)CC1=O (stereo not drawn) [I-271, 4-(1-methyl-1H-pyrrolo[2,3-b]pyridin-4-yl)-7-((5-(1-methyl-2-oxopiperidin-4-yl)pyridin-2-yl)amino)isoin-dolin-1-one] |
